Measurements published in ChEMBL document CHEMBL3046226, “Novel glycol benzyl ether herbicides: Herbicidal activity of 3,3a,5,9b-tetrahydro-2H-furo[3,2-c][2]benzopyran derivatives” (2006).
≈ marks a conversion by molar mass, not a printed value.

Key:
Assay type in all cases: functional
Echinochloa crus-galli [1] = assay: Herbicidal activity against Echinochloa crus-galli (barnyard grass) assessed as growth rate at 30 g/acre
Oryza sativa [2] = assay: Phytotoxicity in Oryza sativa (rice) assessed as assessed as growth rate at 30 g/acre by Oryza sativa (rice) injury assay
Echinochloa crus-galli [3] = assay: Herbicidal activity against Echinochloa crus-galli (barnyard grass)
Oryza sativa [4] = assay: Phytotoxicity in Oryza sativa (rice) assessed as assessed as growth rate at 10 g/acre by Oryza sativa (rice) injury assay
Echinochloa crus-galli [5] = assay: Herbicidal activity against Echinochloa crus-galli (barnyard grass) assessed as growth rate at 3 g/acre
Echinochloa crus-galli [6] = assay: Herbicidal activity against Echinochloa crus-galli (barnyard grass) assessed as growth rate at 1 g/acre

Structure (SMILES) | Activity (Echinochloa crus-galli [1]) | Activity (Oryza sativa [2]) | MIC (Echinochloa crus-galli [3]) | Activity (Oryza sativa [4]) | Activity (Echinochloa crus-galli [5]) | Activity (Echinochloa crus-galli [6])
CC[C@H]1O[C@@H]2c3ccccc3CO[C@@H]2[C@H]1OC(=O)c1ccccc1 | 6% | 91% | 3.3 µg/mL (≈ 10.2 µM) | 91% | 91% | –
CC[C@H]1O[C@@H]2c3ccccc3CO[C@@H]2[C@H]1OCc1cccs1 | 0% | 91% | 0.8 µg/mL (≈ 2.53 µM) | 91% | 11% | 91%
CC[C@H]1O[C@@H]2c3ccccc3CO[C@@H]2[C@H]1OCc1ccccc1C | 0% | 0% | 0.4 µg/mL (≈ 1.23 µM) | 11% | 0% | 11%
Cc1ccccc1CO[C@H]1C[C@]2(C(C)C)CC[C@@]1(C)O2 (relative stereo) [REL-CINMETHYLIN] | 0% | 11% | 0.1 µg/mL (≈ 0.364 µM) | 41% | 0% | 0%
CC[C@H]1O[C@@H]2c3ccccc3C(C)(CBr)O[C@@H]2[C@H]1OCc1ccccc1F (stereo not given in full) | 0% | 91% | > 3 µg/mL | 91% | 71% | –
CC[C@H]1O[C@@H]2c3occc3CO[C@@H]2[C@H]1OCc1ccccc1C | 6% | 71% | 0.2 µg/mL (≈ 0.636 µM) | 91% | 41% | 91%
CC[C@H]1O[C@@H]2c3ccccc3CO[C@@H]2[C@H]1OCc1ccccc1Cl | 0% | 91% | 0.2 µg/mL (≈ 0.58 µM) | 91% | 6% | –
CC[C@H]1O[C@@H]2[C@@H](OCc3ccccc3F)[C@@H](CC)O[C@@H]2c2ccccc21 | 0% | 71% | 0.8 µg/mL (≈ 2.24 µM) | – | 91% | 91%
CC[C@H]1O[C@@H]2c3ccccc3CO[C@@H]2[C@H]1OC1CCc2ccccc21 (stereo not given in full) | 0% | 91% | 0.3 µg/mL (≈ 0.892 µM) | 91% | 41% | –
CC[C@H]1O[C@@H]2c3ccccc3CO[C@@H]2[C@H]1OCc1ccc2ccccc2c1 | 91% | 91% | > 10 µg/mL | 91% | 91% | 91%
CC[C@H]1O[C@@H]2C[C@](C)(c3ccccc3)O[C@@H]2[C@H]1OCc1ccccc1F | 0% | 6% | 0.1 µg/mL (≈ 0.281 µM) | 91% | 6% | –
CC[C@H]1O[C@@H]2c3sccc3CO[C@@H]2[C@H]1OCc1ccccc1F | 0% | 0% | 0.1 µg/mL (≈ 0.299 µM) | 6% | 0% | 6%
CC[C@H]1O[C@@H]2c3ccccc3CO[C@@H]2[C@H]1OCc1ccccc1 | 0% | 0% | 0.4 µg/mL (≈ 1.29 µM) | 11% | 6% | 11%
CC[C@H]1O[C@@H]2c3ccccc3C(=O)O[C@@H]2[C@H]1OCc1ccccc1C | 11% | 91% | 3 µg/mL (≈ 8.87 µM) | 91% | – | –
CC[C@H]1O[C@@H]2c3ccccc3CO[C@@H]2[C@H]1O | 91% | 91% | – | 91% | 91% | 91%
CC[C@H]1O[C@@H]2c3sccc3COC2[C@H]1OCc1ccccc1C (single isomer, unassigned) | 0% | 91% | 0.1 µg/mL (≈ 0.303 µM) | 91% | 0% | 6%
CC[C@H]1O[C@@H]2c3ccccc3[C@@H](C)O[C@@H]2[C@H]1OCc1ccccc1F | 0% | 0% | 0.7 µg/mL (≈ 2.04 µM) | 91% | 6% | 11%

Structure (SMILES) | Activity (Echinochloa crus-galli [1]) | Activity (Oryza sativa [2]) | MIC (Echinochloa crus-galli [3]) | Activity (Oryza sativa [4]) | Activity (Echinochloa crus-galli [5]) | Activity (Echinochloa crus-galli [6])
CC[C@@H]1O[C@@H]2[C@@H](OCc3ccccc3F)[C@@H](CC)O[C@@H]2c2ccccc21 | 0% | 0% | 0.4 µg/mL (≈ 1.12 µM) | – | 11% | 91%
CC[C@H]1O[C@@H]2c3ccccc3CO[C@@H]2[C@H]1OCc1ccsc1 | 0% | 91% | 0.3 µg/mL (≈ 0.948 µM) | 91% | 71% | 91%
CCc1ccccc1CO[C@@H]1[C@H]2OCc3ccccc3[C@H]2O[C@@H]1CC | 0% | 91% | 0.6 µg/mL (≈ 1.77 µM) | 91% | 11% | –
CC[C@H]1O[C@@H]2c3ccccc3C(C)O[C@@H]2[C@H]1OCc1ccccc1C (stereo not given in full) | 0% | 11% | 0.2 µg/mL (≈ 0.591 µM) | 11% | 0% | 6%
CC[C@H]1O[C@@H]2c3ccccc3CO[C@@H]2[C@H]1OCc1ccccc1C#N | 0% | 91% | 3.2 µg/mL (≈ 9.54 µM) | 91% | 91% | 91%
CC[C@H]1O[C@@H]2c3ccsc3CO[C@@H]2[C@H]1OCc1ccccc1C | 0% | 91% | 0.7 µg/mL (≈ 2.12 µM) | 91% | 11% | –
CC[C@H]1O[C@@H]2c3ccccc3CO[C@@H]2[C@H]1O[Si](C)(C)C(C)(C)C | 91% | 91% | > 100 µg/mL | 91% | 91% | 91%
CC[C@H]1O[C@@H]2c3ccccc3CO[C@@H]2[C@H]1OCc1ccccc1C(F)(F)F | 0% | 91% | 0.4 µg/mL (≈ 1.06 µM) | 91% | 71% | 91%
CC[C@H]1O[C@@H]2c3ccccc3CO[C@@H]2[C@H]1OCc1ccc(F)cc1 | 0% | 71% | 1 µg/mL (≈ 3.05 µM) | 91% | 0% | 11%
CC[C@H]1O[C@@H]2c3ccccc3CO[C@@H]2[C@H]1OCc1ccccc1F | 0% | 11% | 0.2 µg/mL (≈ 0.609 µM) | 71% | 6% | 11%
CC[C@H]1O[C@@H]2c3ccccc3CO[C@@H]2[C@H]1OCC1CCCCC1 | 11% | 91% | 10 µg/mL (≈ 31.6 µM) | 91% | 91% | –
CC[C@H]1O[C@@H]2c3ccccc3CO[C@@H]2[C@H]1OC(C)=O | 91% | 91% | 80 µg/mL (≈ 305 µM) | 91% | 91% | 91%
CC[C@H]1O[C@@H]2c3ccsc3CO[C@@H]2[C@H]1OCc1ccccc1F | 0% | 91% | 0.3 µg/mL (≈ 0.897 µM) | 91% | 0% | 6%
CC[C@H]1O[C@@H]2c3ccccc3CO[C@@H]2[C@H]1OCc1cccc(F)c1 | 0% | 91% | 0.3 µg/mL (≈ 0.914 µM) | 91% | 0% | 11%
CC[C@H]1O[C@@H]2c3ccccc3[C@H](C)O[C@@H]2[C@H]1OCc1ccccc1F | 0% | 0% | 0.2 µg/mL (≈ 0.584 µM) | 11% | 0% | 0%
CC[C@H]1O[C@@H]2c3ccccc3CO[C@@H]2[C@H]1OC(C)c1ccccc1 (stereo not given in full) | 0% | 91% | 3 µg/mL (≈ 9.25 µM) | 91% | 41% | –
CC[C@H]1O[C@@H]2c3ccccc3CO[C@@H]2[C@H]1OCc1cccc2ccccc12 | 91% | 91% | 10 µg/mL (≈ 27.7 µM) | 91% | 91% | 91%
